Reference: patent US7214668B2, “Phosphonic acid based prodrugs of PMEA and its analogues” (Metabasis Therapeutics, Inc., priority 2002, dated 2007)
Several values for one entry are separate records, joined by “and”; a condition that tells them apart may be missing. Equal values may be shown once. Read-outs that look alike come from different tables or passages of the source.

Legend:
human liver microsomes [1] = assay: Kinetics of activation of Compound 4 to PMEA by human liver microsomes; assay type: in vitro ADME; conditions: 2 mg/mL human liver microsomes, 10 minutes, 37° C.
Procedure: The kinetics of activation of Compound 4 by the microsomal fraction of human liver were determined.
Human liver microsomes were purchased from In Vitro Technologies (IVT). Lot 1011 was prepared from a pool of 10 male donors with documented CYP3A4 activity (testosterone 6β-hydroxylation rate of 5.7 nmol/mg/min; IVT). […] Following a 2-minute preincubation at 37° C., reaction mixtures containing 100 mM KH2PO4, 2 mg/mL human liver microsomes, and 0, 30, 60, 100, 200 and 400 μM Compound 4 were started by addition of NADPH to 2 mM. The reaction was carried out for 10 minutes in an Eppendorf Thermomixer 5436 at 37° C., speed 6. […] Reactions were terminated by the addition of 1.5 volumes of methanol and extracts were pelleted at 14,000 rpm in an Eppendorf microfuge for 20 minutes. The supernatants (200 μl) were evaporated under vacuum and heat to dryness before resuspending in 80 μL buffer A (see below). Spiked standards of 9-[2-(phosophonomethoxy)ethyl]adenine, (PMEA, lot 980397, Metabasis Therapeutics) were prepared in the reaction mixture, and quenched and processed in an identical fashion. The ion-pairing buffer (Buffer A) consisted of 10 mM ammonium phosphate and 2.5 mM octyltriethylammonium phosphate, pH 5.5. After resuspension, samples were analyzed for PMEA by reverse phase HPLC. […]

[2] = PMEApp accumulation in liver organ following oral administration to normal fasted rats; assay type: in vivo, rat; conditions: 30 mg/kg PMEA equivalents p.o.
Procedure: PMEA prodrugs were tested in vivo to identify prodrugs with suitable oral bioavailability and favorable intrahepatic activation rates.
Following oral administration of 30-mg/kg prodrug (PMEA equivalents) to normal, fasted rats, liver organ samples were freeze-clamped at 8 hr. […] The retention time of PMEApp was 18.6 minutes.

[3] = Pharmacokinetics and oral bioavailability in beagle dog; assay type: in vivo
Procedure: Following an i.v. bolus and oral administration of 8 and 40 mg/kg (prodrug equivalent dose), respectively, of Compound 4 in PEG-400 to male beagle dogs (n=4), blood samples were collected at the following times: 5, 15, 30, 45 min and 1, 2, 4, 6, 8, 12, and 24 hrs post each dosing occasion. In addition, urine was collected over the following intervals: 0–12, 12–24, 24–48, and 48–72 hrs. Intact Compound 4 and PMEA were measured in the plasma and urine samples using an LC-MS/MS method. PK parameters were determined by non-compartmental analysis.

[4] = system: liver microsomes isolated from rats induced with dexamethasone; assay: In vitro activation of PMEA prodrug analogues to PMEA by rat liver microsomes; conditions: 1 mg/mL microsomes, 2 mM NADPH, 5 minutes, 37° C., PMEA formation
Procedure: PMEA prodrug analogues were tested for activation to PMEA in reactions catalyzed by the microsomal fraction of rat liver.
Prodrugs (25 and 250 μM) were tested for activation by liver microsomes isolated from rats induced with dexamethasone to enhance CYP3A4 activity (Human Biologics Inc., Phoenix Ariz.). Reactions were conducted in 0.1 M KH2PO4, pH 7.4, in the presence of 2 mM NADPH and liver microsomes (1 mg/mL). Reaction mixtures were incubated for 5 minutes in an Eppendorf Thermomixer 5436 (37° C., speed 6). Reactions were terminated by the addition of 1.5 volumes of methanol. The resulting extracts were clarified by centrifugation at 14,000 rpm in an Eppendorf microfuge (20 minutes). The supernatants (200 μL) were evaporated under vacuum and heat to dryness before resuspending in 80 μL of buffer A (see below) for PMEA analysis. Spiked standards of 9-[2-(phosophonomethoxy)ethyl]adenine, (PMEA, lot 980397, Metabasis Therapeutics) were prepared in the same reaction mixture and processed in an identical fashion. After resuspension, samples were analyzed by reverse phase HPLC (Altima C-18 column) with use of an ion-pairing buffer (Buffer A) consisting of 10 mM ammonium phosphate, 2.5 mM octyltriethylammonium phosphate, pH 5.5. Samples were loaded in Buffer A and eluted with a methanol gradient from 40% to 80% over 20 minutes. Detection was at 265 nm.

human liver microsomes [5] = assay: In vitro activation of enantiomers in human liver microsomes (glutathione by-product capture); assay type: in vitro ADME; conditions: 2 mg/mL human liver microsomes, glutathione adduct of by-product quantified
Procedure: The two enantiomers were compared for activation in human liver microsomes.
Human liver microsomes were purchased from In Vitro Technologies (IVT1032). […] The reactions were initiated by addition of NADPH following a 2-minute preincubation. Reactions were quenched with 60% methanol at 0, 2.5, 5, and 7.5 minutes. L-Glutamyl-L-(S-(3-oxo-3-(3-chlorophenyl)propyl)cysteinylglycine, a glutathione adduct of the by-product of prodrug activation, 3-Cl-phenyl vinyl ketone, was quantified following extraction of the reaction with 1.5 volumes of methanol. The extracted samples were centrifuged at 14,000 rpm in an Eppendorf microfuge and the supernatant analyzed by HPLC for L-Glutamyl-L-(S-(3-oxo-3-(3-chlorophenyl)propyl)cysteinylglycine content. Spiked L-Glutamyl-L-(S-(3-oxo-3-(3-chlorophenyl)propyl)cysteinylglycine (lot 20000127) standards (1–30 μM) were prepared in 2 mg/ml microsomes under reaction conditions and then quenched and processed in an identical fashion to unknown samples. For HPLC analysis, the loading mobile phase buffer (Buffer A) consisted of a 9:1 ratio (v/v) of 20 mM potassium phosphate, pH 6.2 and acetonitrile. Extract (100 uL) was injected onto a Beckman Ultrasphere ODS column (4.6×250 […], part#235329). […] The elution of L-Glutamyl-L-(S-(3-oxo-3-(3-chlorophenyl)propyl)cysteinylglycine (retention time 10.4 minutes) was monitored at 245 nm.

[6] = system: freshly isolated rat hepatocytes; assay: Hepatotoxicity parameters in isolated normal and dexamethasone-induced rat hepatocytes
Procedure: Normal fed Sprague-Dawley rats weighing 280–310 g were administered dexamethasone intraperitoneally at 50 mg/kg once a day for four days. Dexamethasone was purchased from Sigma (lot#119H1328) and formulated as a suspension in corn oil (Sigma lot#107H1649) at 50 mg/mL. On the fifth day rats were used for hepatocyte isolations. […] Effects on glutathione levels were assessed by the DTNB (Ellman's reagent) method and viability was determined by the trypan blue exclusion assay and hepatic enzyme leakage assays (LDH, AST). […] Both assays were adapted from the protocol insert for a test tube assay to a microtiter plate assay.

[7] = Procedure: Intact prodrug and the metabolite 9-[2-(phosophonomethoxy)ethyl]adenine (PMEA) and the respective mono-acids were measured in the plasma at 0 (predose), 0.33, 1, 3, 5, 8, and 12 hrs post dose by HPLC using fluorescence detection. The pharmacokinetic parameters were calculated based on noncompartmental analysis of the concentration-time profile.
[8] = 40 mg/kg p.o. vs 8 mg/kg i.v., dog
[9] = 1 mM Compound 4, normal rat hepatocytes

Compound: Nc1ncnc2c1ncn2CCOCP1(=O)OCCC(c2cccc(Cl)c2)O1 (racemic) [Compound 4]
- Km (human liver microsomes [1]): 11 µM
- Rats, PMEApp levels in liver organ @ 8 hr., 30 mg/kg, p.o. [2]: 6.6 nmol/g
- Tolerability (signs of ill health or mortality) ([3]; 8 mg/kg i.v. bolus and 40 mg/kg oral in PEG-400, male beagle dogs): well tolerated
- Mean residence time (MRTiv) ([3]; 8 mg/kg i.v. bolus, dog): 1.0 h
- Plasma clearance ([3]; 8 mg/kg i.v. bolus, dog): 29.5 mL/min/kg
- Volume of distribution (Vss) ([3]; 8 mg/kg i.v. bolus, dog): 1.70 L/kg
- Mean terminal elimination half-life t1/2 of intact prodrug, i.v. ([3]; 8 mg/kg i.v. bolus, dog plasma): 0.8 h
- i.v. dose excreted in the urine as PMEA ([3]; 8 mg/kg i.v., dog): 2%
- i.v. dose excreted in the urine as intact Compound 4 ([3]; 8 mg/kg i.v., dog): approximately 30%
- OBAV based on dose normalized oral-to-i.v. AUC ratios [3, 8]: 112%
- OBAV based on urinary excretion of Compound 4 [3, 8]: 82%
- Half-life of PMEA after oral dosing of the prodrug ([3]; 40 mg/kg p.o., dog): 5.4 h
- Mean peak plasma concentration (Cmax) of intact prodrug, oral ([3]; 40 mg/kg p.o., dog): 10200 ng/mL
- Mean plasma Cmax of PMEA following oral administration ([3]; 40 mg/kg p.o., dog): 240 ng/mL
- Terminal t1/2 after p.o. dosing ([3]; 40 mg/kg p.o., dog): 1.0 h
- Tmax of PMEA following oral administration ([3]; 40 mg/kg p.o., dog): 1.4 h
- Tmax of intact prodrug, oral ([3]; 40 mg/kg p.o., dog): 0.8 h and 0.81 h
- p.o. dose excreted in the urine as PMEA ([3]; 40 mg/kg p.o., dog): 1.7%
- p.o. dose excreted in the urine as intact prodrug ([3]; 40 mg/kg p.o., dog): 40%
- Cmax ([3]; 40 mg/kg p.o., dog, read-out: Mean peak plasma concentration (Cmax) of intact prodrug, oral): ~24 µM
- Cmax ([3]; 40 mg/kg p.o., dog, read-out: Mean plasma Cmax of PMEA following oral administration): ~0.88 µM
- % F (orally bioavailable) ([3]; beagle dog, conclusion): ~100%
- Fold reduction of systemic PMEA exposure (dose-normalized plasma AUC) versus bis POM PMEA literature ([3]; dog): 18.8 fold
- PMEA AUC (dose-normalized plasma) ([3]; dog, after Compound 4): 0.58
- Activation Rate, Dex. Rat Liver Microsomes, 25 μM ([4]; 25 μM prodrug): 6.2 nmol/min/mg
- Activation Rate, Dex. Rat Liver Microsomes, 250 μM ([4]; 250 μM prodrug): 10.9 nmol/min/mg
- Activation (25 μM) (human liver microsomes [5]; 25 μM): 38 pmol/mg/min
- Activation (250 μM) (human liver microsomes [5]; 250 μM): 283 pmol/mg/min
- Viability or hepatic enzyme leakage following glutathione depletion ([6]; 250 μM and 1 mM, hepatocytes from dexamethasone pre-treated rats): no significant changes
- Glutathione reduction, 250 μM ([6]; 250 μM, hepatocytes from dexamethasone pre-treated rats, 2-hour incubation): 50%
- Glutathione levels, normal hepatocytes [6, 9]: no significant decrease
- Viability or hepatic enzyme leakage, normal hepatocytes [6, 9]: no significant changes
- Glutathione reduction, 1 mM ([6]; 1 mM, hepatocytes from dexamethasone pre-treated rats, 2-hour incubation): > 95%
- Plasma half-life of breakdown product 9-{2-[1-{(3-chlorophenyl)-1-propyl-3-hydroxy}phosphonomethoxy]ethyl}adenine ([7]; after 30 mg/kg PMEA equivalents p.o. of prodrug, rats): ~2.1 h
- Intact prodrug in plasma ([7]; rat, in vivo): observed in plasma
